Test results: BindingDB's records for doi:10.1016/j.bmcl.2013.03.030 (Panthera Biopharma, 2013)

Target: Botulinum neurotoxin type A (Clostridium botulinum, UniProt P0DPI0)
Experiment: Inhibition of Clostridium botulinum BoNT/A light chain (1 to 429 amino acid) using Abz-Thr-dArg-Ile-Asp-Glu-Ala-Asn-Gln-Arg-Ala-Thr-Lys-Nle-Lys(Dnp)-NH2 as substrate after 10 mins by FRET assay

Sequence of Botulinum neurotoxin type A (P0DPI0 2-448 limits assumed): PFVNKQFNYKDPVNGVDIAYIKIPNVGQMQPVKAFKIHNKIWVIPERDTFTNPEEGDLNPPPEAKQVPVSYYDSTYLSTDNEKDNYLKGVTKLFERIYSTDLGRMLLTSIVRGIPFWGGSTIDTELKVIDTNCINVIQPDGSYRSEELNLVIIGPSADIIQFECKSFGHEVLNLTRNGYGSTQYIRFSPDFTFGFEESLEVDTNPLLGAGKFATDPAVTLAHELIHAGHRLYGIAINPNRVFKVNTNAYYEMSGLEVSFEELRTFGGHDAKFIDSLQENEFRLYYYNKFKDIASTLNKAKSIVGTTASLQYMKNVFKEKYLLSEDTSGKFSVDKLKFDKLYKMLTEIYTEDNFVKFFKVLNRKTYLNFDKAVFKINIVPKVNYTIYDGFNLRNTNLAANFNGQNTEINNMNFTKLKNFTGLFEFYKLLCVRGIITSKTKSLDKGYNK

Q: For `O=C(Cc1sc(N2CCCC2)nc1O)NO`, which Ki is on record?
A: The Ki was greater than 300 µM.
